Earlier results on one compound are cited in paper PMC9775153, “Portability of a Small-Molecule Binding Site between Disordered Proteins” (Biomolecules, 2022).

The test system of one data set is Max. More on the design: method as in PMID 13679853. As to conditions: cited from earlier work.
The test system of another data set is Myc-Max dimerization. More on the design: method as in PMID 13679853. As to conditions: cited from earlier work.
The target of a further data set is T1, Myc402–412 peptide (Homo sapiens, UniProt P01106).
T1 construct: purchased Genscript; host or cells: solid phase peptide synthesis
More on the design: method as in PMID 19022175. As to conditions: 20 µM peptide; cited from earlier work.

Take `CCc1ccc(/C=C2/SC(=S)NC2=O)cc1` [1RH]: the “interaction with Max” value in the data set with Max was “not to interact”. Besides, the “effect on Myc-Max dimerization” value in the data set with Myc-Max dimerization is recorded as “disrupted Myc-Max dimerization”. Besides, the “effect on peptide secondary structure (CD)” value at Myc402–412 peptide was “induced a substantial shift in the peptide’s secondary structure”.
